Values joined by “and” are separate entries in the source; they are usually repeats but may differ in a detail not shown here. Equal values may be shown once.
Target: T1, leukotriene receptor (guinea pig lung membranes) (Cavia porcellus, UniProt Q2NNR5)
T1 construct: 20 mg original tissue wet weight of guinea pig lung; tissue Kuiper Rabbit Farm, Gary, IN (animals); host or cells: guinea pig lung, crude membranes
T1 sequence (Q2NNR5 1-340): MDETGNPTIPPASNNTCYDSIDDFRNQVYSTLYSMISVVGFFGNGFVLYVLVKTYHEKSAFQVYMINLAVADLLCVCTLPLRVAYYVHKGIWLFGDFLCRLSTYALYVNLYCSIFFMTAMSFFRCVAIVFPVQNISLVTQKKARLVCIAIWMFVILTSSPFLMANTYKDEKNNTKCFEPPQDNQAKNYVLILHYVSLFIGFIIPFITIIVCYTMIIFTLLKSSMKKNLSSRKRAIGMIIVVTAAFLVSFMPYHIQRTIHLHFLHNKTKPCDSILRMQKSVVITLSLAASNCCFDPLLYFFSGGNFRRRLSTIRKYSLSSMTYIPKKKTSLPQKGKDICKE
Experiment: Binding of ^3 H-Leukotriene D4 to Guinea Pig Lung Membranes (RBL)
Details: 0.2 nM ^3 H-LTD4, 60 min, 25° C.; read-out: Concentration (M) for 50.0 % Inhibition, IC (RBL)
In short: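 Crude lung membranes from 300 g male guinea pigs (20 mg tissue/ml) were incubated in triplicate with 0.2 nM ³H-LTD4 in 50 mM Tris pH 7.7, 10 mM MgCl2, 1% DMSO for 60 min at 25 °C. Bound ligand was collected by GF/B filtration and scintillation counting; nonspecific binding defined with 100 nM LTC4.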

Row | SMILES | IC50
1 | O=C(Nc1ccccc1CCc1ccc(Cl)c(Cl)c1)C1=C(O)c2ccccc2S(=O)(=O)C1 [Example 8, N-[2-[2-(3,4-Dichlorophenyl)ethyl]phenyl]-4-hydroxy-2H-1-benzothiopyran-3-carboxamide, 1,1-dioxide] | 4.21e-06 M
2 | O=C(Nc1ccc(CCc2ccccc2)cc1)C1CS(=O)(=O)c2ccccc2C1=O (centres unmarked) [Example 16, 3,4-Dihydro-4-oxo-N-[(4-(2-phenyl)ethyl]-phenyl]-2H-1-benzothiopyran-3-carboxamide, 1,1-dioxide] | 1.28e-05 M
3 | COc1ccc(CCc2ccc(NC(=O)C3=C(O)c4ccccc4S(=O)(=O)C3)cc2)cc1OC [Example 18, N-[4-[2-(3,4-Dimethoxyphenyl)ethyl]phenyl]-4-hydroxy-2H-1-benzothiopyran-3-carboxamide, 1,1-dioxide] | 7.19e-05 M
4 | COc1ccc(CCc2ccc(NC(=O)C3CS(=O)(=O)c4ccccc4C3=O)cc2)cc1O (centres unmarked) [Example 27, 3,4-Dihydro-N-[4-[2-(3-hydroxy-4-methoxyphenyl)ethyl]phenyl]-4-oxo-2H-1-benzothiopyran-3-carboxamide, 1,1-dioxide] | 0.000106 M and 0.00012 M
5 | COc1ccc(CCc2ccc(NC(=O)C3CS(=O)(=O)c4ccccc4C3=O)cc2)cc1 (centres unmarked) [Example 41] | 1.26e-05 M
6 | O=C(Nc1ccc(CCc2ccc(-c3ccccc3)cc2)cc1)C1CS(=O)(=O)c2ccccc2C1=O (centres unmarked) [Example 46, N-[4-[2-([1,1'-biphenyl]-4-yl)ethyl]phenyl]-3,4-dihydro-4-oxo-2H-1-benzothiopyran-3-carboxamide, 1,1-dioxide] | 2.15e-05 M and 1.87e-05 M
7 | CCCCOc1ccc(CCc2ccc(NC(=O)C3CS(=O)(=O)c4ccccc4C3=O)cc2)cc1 (centres unmarked) [Example 48] | 6.48e-06 M and 1.19e-05 M and 2e-05 M and 1.29e-05 M
8 | O=C(Nc1ccc(CCc2ccc3ccccc3c2)cc1)C1=C(O)c2ccccc2S(=O)(=O)C1 [Example 51, 4-Hydroxy-N-[4-[2-(2-naphthalenyl)ethyl]phenyl]-2H-1-benzothiopyran-3-carboxamide, 1,1-dioxide] | 3.84e-06 M
9 | Cc1ccc(CCc2ccc(NC(=O)C3CS(=O)(=O)c4ccccc4C3=O)cc2)cc1C (centres unmarked) [Example 53, N-[4-[2-(3,4-Dimethylphenyl)ethyl]phenyl]-3,4-dihydro-4-oxo-2H-1-benzothiopyran-3-carboxamide, 1,1-dioxide] | 3.54e-06 M
10 | O=C(Nc1ccc(CCc2ccc(Cl)cc2)cc1)C1CS(=O)(=O)c2ccccc2C1=O (centres unmarked) [Example 54, N-[4-[2-(4-Chlorophenyl)ethyl]phenyl]-3,4-dihydro-4-oxo-2H-1-benzothiopyran-3-carboxamide, 1,1-dioxide] | 1.09e-05 M
11 | CCCCCCCCCCc1ccc(NC(=O)C2CS(=O)(=O)c3ccccc3C2=O)cc1 (centres unmarked) [Example 60, N-(4-Decylphenyl)-3,4-dihydro-4-oxo-2H-1-benzoothiopyran-3-carboxamide, 1,1-dioxide] | 1.21e-05 M
12 | O=C(Nc1ccc(CCc2c(F)c(F)c(F)c(F)c2F)cc1)C1=C(O)c2ccccc2S(=O)(=O)C1 [Example 64, N-[4-[2-(2,3,4,5,6-Pentafluorophenyl)ethyl]phenyl]-4-hydroxy-2H-1-benzothiopyran-3-carboxamide, 1,1-dioxide] | 6.11e-06 M and 9.49e-06 M and 2.82e-06 M
13 | O=C(Nc1ccc(C=Cc2ccc([N+](=O)[O-])cc2)cc1)C1CS(=O)(=O)c2ccccc2C1=O (centres unmarked) [Example 67, 2H-1-Benzothiopyran-3-carboxamide, 3,4-dihydro-N-[4-[2-(4-nitrophenyl)ethenyl]phenyl]-4-oxo-, 1,1-dixide] | 6.56e-06 M and 1.04e-05 M
14 | O=C(Nc1ccc(CCc2cccc3ccccc23)cc1)C1=C(O)c2ccccc2S(=O)(=O)C1 [Example 73, 2H-1-Benzothiopyran-3-carboxamide, 4-hydroxy-N-[4-[2-(1-naphthalenyl)ethyl]phenyl], 1,1-dioxide] | 3.84e-06 M
15 | O=C(Nc1ccc(C=Cc2ccc(Cl)c(Cl)c2)cc1)C1=C(O)c2ccccc2S(=O)(=O)C1 [Example 74, 2H-1-Benzothiopyran-3-carboxamide, N-[4-[2-(3,4-dichlorophenyl)ethenyl]phenyl]-4-hydroxy-, 1,1-dioxide] | 5.27e-06 M
16 | O=C(Nc1cccc(CCc2ccc(Cl)c(Cl)c2)c1)C1=C(O)c2ccccc2S(=O)(=O)C1 [Example 76, 2H-1-Benzothiopyran-3-carboxamide, N-[3-[2-(3,4-dichlorophenyl)ethyl]phenyl]-4-hydroxy-, 1,1-dioxide] | 3e-06 M
17 | O=C(Nc1ccc(Cc2ccc(Cl)c(Cl)c2)cc1)C1=C(O)c2ccccc2S(=O)(=O)C1 [Example 78, 2H-1-Benzothiopyran-3-carboxamide, N-[4-[(3,4-dichlorophenyl)methyl]phenyl]-4-hydroxy-, 1,1-dioxide] | 4.82e-06 M
18 | O=C(Nc1ccc(CCCc2ccc(Cl)c(Cl)c2)cc1)C1=C(O)c2ccccc2S(=O)(=O)C1 [Example 79, 2H-1-Benzothiopyran-3-carboxamide, N-[4-[3-(3,4-dichlorphenyl)propyl]phenyl]-4-hydroxy-, 1,1-dioxide] | 4.13e-07 M and 5.3e-07 M
19 | O=C(Nc1ccccc1CCCc1ccc(Cl)c(Cl)c1)C1=C(O)c2ccccc2S(=O)(=O)C1 [Example 80, 2H-1-Benzothiopyran-3-carboxamide, N-[2-[3-(3,4-dichlorophenyl)propyl]phenyl]-4-hydroxy-, 1,1-dioxide] | 1.27e-05 M
20 | O=C(Nc1ccccc1Cc1ccc(Cl)c(Cl)c1)C1=C(O)c2ccccc2S(=O)(=O)C1 [Example 81, 2H-1-Benzothiopyran-3-carboxamide, N-[2-[(3,4-dichlorophenyl)methyl]phenyl]-4-hydroxy, 1,1-dioxide] | 1.01e-05 M
21 | COc1cc(CCc2ccc(NC(=O)C(=O)c3sc4ccccc4c3O)cc2)ccc1O [Example 142, Benzo[b]thiophene-2-acetamide, 3-hydroxy-N-[4-[2-(4-hydroxy-3-methoxyphenyl)ethyl]phenyl]-α-oxo-] | 6.1e-05 M
22 | COc1ccc(CCc2ccc(NC(=O)c3sc4ccccc4c3O)cc2)cc1OC [Example 143, Benzo[b]thiophene-2-carboxamide, N-[4-[2-(3,4-dimethoxphenyl)ethyl]phenyl]-3-hydroxy] | 1.21e-05 M
23 | O=C(Nc1cccc(CCc2ccc(Cl)c(Cl)c2)c1)c1sc2ccccc2c1O [Example 146, Benzo[b]thiophene-2-carboxamide, N-[3-[2-(3,4-dichlorophenyl)ethyl]phenyl]-3-hydroxy] | 1.02e-06 M
